Measured values: the supplement of paper PMC8837787

These compounds were tested on Saccharomyces cerevisiae ABC16-Green Monster (assay: growth inhibition at single dose (up to 150 µM), below the 70% cut-off for dose-response; higher = more potent). Conditions: 18 h; 30 °C; YPD.
Method in brief: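 Data are given as percent growth inhibition. Log-phase drug-sensitive S. cerevisiae ABC16-Green Monster cells (OD600 0.1–0.2, 200 µl per well in 96-well plates) were treated in biological duplicates with each library compound at a single 150 µM dose, with untreated cultures alongside, and OD600 was measured at 0 h and after 18 h at 30 °C. Compounds falling below 70% in both replicates were not taken to dose-response.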

Structure (SMILES) | growth inhibition at single dose
Cc1nn(-c2ccccc2)c(Oc2ccccc2)c1/C=C1\C(=O)Nc2ccccc21 | < 70%
CCc1c(C)[nH]c2cc(-c3ccc(OC)cc3)nn2c1=O | < 70%
COc1ccc(CNc2ncnc3ccccc23)cc1 | < 70%
CCCOCc1cc(CN2CCN(c3cccc(Cl)c3)CC2)c(O)c2ncccc12 | < 70%
CC(=O)NCCCc1ccc(C(=O)COC(=O)c2ccccc2-n2cnnn2)cc1 | < 70%
CCN(CC)S(=O)(=O)c1ccc(OC(C)C)c(NC(=O)C2=CN3CCS(=O)(=O)N=C3C=C2)c1 | < 70%
O=C(Nc1ccc(CN2CCOCC2)cc1)c1ccc(-c2ccc(Br)cc2)o1 | < 70%
CC(=O)c1ccc(NC(=O)CSc2nc(-c3ccccc3Cl)ns2)cc1 | < 70%
CNc1nc(SCCS(=O)(=O)c2ccccc2)nc2ccccc12 | < 70%
CCC(Sc1nc2ccccc2o1)C(=O)Nc1nnc(C)s1 (stereo not drawn) | < 70%
Cc1cc(C)c2nc(N3CCC(C(=O)NCCCN4CCC(N5CCCCC5)CC4)CC3)sc2c1 | < 70%
CC(C)(C)CC(C)(C)NCC(O)COc1ccc2c(c1)CCC2 (stereo not drawn) | < 70%
CCOC(=O)N1CCC(N/C=C(\C#N)S(=O)(=O)c2ccc(Cl)cc2)CC1 | < 70%
N#CC(C(=O)c1cc(S(=O)(=O)N2CCc3ccccc3C2)ccc1Cl)c1ccccn1 (stereo not drawn) | < 70%
CCOc1c(Br)cc(C2C(C(=O)OC)=CN(C)C=C2C(=O)OC)cc1OC | < 70%
CC(C)(C)n1ncc(C(=O)NCCOc2ccccc2)c1C(F)(F)F | < 70%
Cc1ccc(CNC(=O)c2ccc(/C=C3\SC(=O)NC3=O)cc2)cc1 | < 70%
CCOC(=O)C1=C(c2ccccc2)N=c2sc(=Cc3cc(C)n(-c4ccc(F)cc4)c3C)c(=O)n2C1c1cccc(OC)c1OC (stereo not drawn) | < 70%
COc1cc(C2=NCCN2)ccc1-n1cc(-c2cccc(C3=NCCN3)c2)nn1 | < 70%

Structure (SMILES) | growth inhibition at single dose
CC(=O)Nc1ccc(-c2noc(CC3CCCN(Cc4cccc(F)c4C)C3)n2)cc1 (stereo not drawn) | < 70%
c1ccc2cc(OCCNc3ncnc4sccc34)ccc2c1 | < 70%
Cc1cc(C)cc(COc2ccc3c(C)c(CCC(=O)O)c(=O)oc3c2C)c1 | < 70%
Cc1nn(Cc2ccccc2)c2sc(C(=O)Nc3nc4ccccc4[nH]3)cc12 | < 70%
COc1ccc(CN2CCCC(C(=O)c3ccc(C(F)(F)F)cc3)C2)c(O)c1 (stereo not drawn) | < 70%
Cc1ccc(NC(=O)c2cc3c(s2)CCCCCC3)nc1 | < 70%
CSc1nc(=O)nc(-c2ccc(Cl)cc2)[nH]1 | < 70%
Nc1ncc(-c2cn[nH]c2)cc1-c1nc2cc(Cl)cnc2[nH]1 | < 70%
CN(N=O)C1=C(NC2CCCCC2)C(=O)c2ccccc2C1=O | < 70%
Cc1ccc(Nc2nc(N)c3ccccc3n2)cc1Cl | < 70%
CCOc1cc2c(cc1OCC)C(c1cc(OC)c(O)cc1Cl)NCC2 (stereo not drawn) | < 70%
O/N=C1/c2ccccc2-c2nnc(-c3cccc(OC(F)(F)F)c3)cc21 | < 70%
O=C(Cn1ccnc1[N+](=O)[O-])NCc1ccccc1 | < 70%
COc1ccc(C=C2SC(=N)N(c3ccccc3OC)C2=O)cc1 | < 70%
CCCCc1ccc(NS(=O)(=O)c2cc3c4c(c2)CCN4C(=O)CC3)cc1 | < 70%
COc1cccc(N(C)S(=O)(=O)c2cccc3cc(C)cnc23)n1 | < 70%
O=C(COc1ccc2[nH]c3ccccc3c(=O)c2c1)Nc1ccccc1Cc1ccccc1 | < 70%
CCOC(=O)c1c(NC(=O)c2ccccc2)sc2c(O)c(CN(CC)CC)ccc12 | < 70%
CCN(CC)CCNc1ccnc2cc3ccccc3cc12 | < 70%
